Laboratory results from EP4088722A1, “PHARMACEUTICAL COMPOSITIONS, USES THEREOF AND METHODS FOR TREATMENT OF GENETIC DISEASES CAUSED BY INTRONIC SPLICE-ACCEPTOR SITE MUTATIONS” (priority 2021, dated 2022).

Experiments:
[1] = test system: AGA minigene containing the splice variant (c.128-2A>G); assay: AGA minigene luciferase splicing assay in AGA knockout HEK293T cells; conditions: for splicing of the AGA minigene / variant (summary statement): overall statement in the description, across the AGA assays
Protocol: HEK293T (human embryonic kidney cells) cells were cultured in Dulbecco's modified Eagle's medium (DMEM) with high glucose, 10% fetal calf serum (FCS), 1 % penicillin/streptomycin (all from Gibco, Thermo Fisher Scientific, Germany). […] Immortalized, hTERT-transformed normal human skin fibroblasts were used as control [(Banning, A.; et al. Identification of Small Molecule Compounds for Pharmacological Chaperone Therapy of Aspartylglucosaminuria. Sci Rep 2016, 6, 37583]. All fibroblasts were cultured in DMEM (high glucose), 10% FCS, 1 % penicillin/streptomycin, 1 % non-essential amino acids and 1 % sodium pyruvate. All cells were grown at 8% CO2 and 37°C.
For transient transfection, cells were seeded onto 12-well plates on the day before transfection. For transfections, 400 ng of expression plasmid DNA and 50 ng of pRL-TK Renilla luciferase control reporter vector (Promega) were transfected using MACSfectin™ (Miltenyi Biotec, Bergisch Gladbach, Germany) according to the manufacturer's protocol. Fibroblasts were transfected with Neon Transfection System (Invitrogen). The following day, the cells were transferred onto 24-well plates, treated with specific substances and harvested after 24 h of treatment in lysis juice for firefly and renilla luciferase assay (PJK GmbH, Kleinblittersdorf, Germany). Determination of firefly and renilla luciferase activity was performed with a Tecan infinite M200 plate reader using 20 µl of lysate and 85 µl of beetle or renilla juice (PJK) as reagents. Relative luciferase activity was calculated by dividing the firefly luciferase activity by the renilla luciferase activity.
This construct contains the splice acceptor site mutation -2A>G in intron 1. If exon 2 is spliced out, altered reading frame in exon 3 produces an early STOP codon and prevents the expression of luciferase. However, if all three exons are correctly spliced, the luciferase ORF is translated in-frame as a fusion protein with the AGA protein sequence coded by exons 1-3.

[2] = test system: AGA minigene construct without luciferase (c.128-2A>G); assay: cells; type: cell-based, human; conditions: 24 h; for fold induction at 7500 µM: Homo sapiens, HEK-293T, read-out: increase in the correctly spliced product (exons 2 and 3); for changes in the splicing (correctly spliced product): 7.5 mM, qRT-PCR
Protocol: (§1) For qPCRs, total RNA was isolated with peqGOLD TriFast™ (VWR, Darmstadt, Germany) and included a DNAse step. Total RNA (1-3 µg) were reverse transcribed with 150 fmol oligo(dT) primers and M-MuLV reverse transcriptase (NEB, Frankfurt, Germany) in a total volume of 45 µL. Real-time quantitative PCRs were performed using the CFX Connect Real-Time PCR Detection System (Bio-Rad, Munich, Germany). Annealing temperature was 60°C for all primers. The reactions were done as duplicates with 0.8 µL cDNA in a total volume of 10 µL using iTaq-TMUniversal SYBR Green Supermix (Bio-Rad). PCR products were quantified with the ACt-method. For normalization, the mean of the reference genes B2M, Rpl13a, Ywhaz and TBP was used. Table 2. Sequences of primers used for the quantitative real-time PCR.
RNA was isolated from the cells, reverse transcribed to cDNA, and a qRT-PCR with a fwd primer residing in exon 2 and a reverse primer in the plasmid vector (3'-untranslated region of the resulting RNA) was performed. Thus, amplification of a PCR product of 271 bp is only observed when both exons 2 and 3 are present in the mRNA.

[3] = test system: endogenous AGA mRNA with exon 2; type: cell-based, human; conditions: 24 h, patient fibroblasts
Protocol: (§2) Fibroblasts were seeded into 6-well plates and treated with the following compounds: caffeine, theophylline, theobromine, pentoxifylline, doxofylline(1-7.5 mM, solvent H2O; TCI, Eschborn, Germany), luteolin (10-50 µM, solvent DMSO; Biozol, Eching, Germany) or kinetin (10-100 µM, solvent DMSO; TCI, Eschborn,Germany) for 24 h (RNA) or 48 h (protein lysate). Cells were harvested in lysis buffer (50 mM Tris pH 7.4, 150 mM NaCl, 2 mM EDTA, 1% NP-40), supplemented with protease inhibitor cocktail (Sigma-Aldrich). Protein concentrations in the lysates were determined according to the Bradford method.
as §1

AGA mRNA = assay: qRT-PCR of AGA mRNA in control fibroblasts; type: cell-based, human; conditions: 7.5 mM caffeine, 24 h
Protocol: as §2, §1

[4] = test system: AGA-luciferase minigene constructs (c.128-2A>G); assay: AGA luciferase minigene splicing assay in AGU patient fibroblasts; type: cell-based, human; conditions: 24 h; for luciferase readout: increasing amounts; for luciferase activity: 7.5 mM
AGA activity = AGA activity in patient fibroblasts, colorimetric Morgan-Elson assay with AADG as substrate; type: cell-based, human; conditions: 25 µM luteolin, 48 h
Protocol: as §2
In most experiments, AGA activity was measured fluorimetrically as described in Banning, A.; et al. Sci Rep 2016, 6, 37583. […] In short, 12.5 µl of cell lysate were mixed with 100 nmol AADG, 3.35 µl 0,5 M KH2PO4, pH8, and 0.9% NaCl to reach a total volume of 25 µl. […] The liberated N-acetylglucosamine was measured at 585 nm. […]
Due to these encouraging data, the AGA activity was measured in patient fibroblasts treated with 25 µM luteolin (Figure 10b). Since luteolin acts as a quencher in our standard fluorescence-based AGA activity measurement [Schoefer, L.; Braune, A., FEMS Microbiol Lett 2001, 204, 277-280, and our own observations], we used a colorimetric activity assay [Tikkanen, R.; et al., DNA Cell Biol 1995, 14, 305-312] that is less sensitive but not subject to quenching by luteolin.

[5] = 7.5 mM, 24 h, compared to untreated cells

SMILES: Cn1c(=O)c2c(ncn2C)n(C)c1=O [caffeine, 1,3,7-trimethylxanthine]
- luciferase activity [1, 5]: highest increase
- fold induction at 7500 µM [2]: ~20
- endogenous AGA mRNA splicing products that contain exons 2 and 3 ([3]; 7.5 mM caffeine): significantly increased to a level that corresponds to the untreated control fibroblasts
- AGA mRNA (AGA mRNA): increase in the AGA mRNA in control fibroblasts
- luciferase readout [4]: significant, dose dependent increase in the luciferase readout

SMILES: Cn1c(=O)c2c(ncn2CC2OCCO2)n(C)c1=O [doxofylline, 7-(1,3-dioxolan-2-ylmethyl)-1,3-dimethylpurine-2,6-dione]
- luciferase activity [1, 5]: significantly increased luciferase activity
- splicing of the AGA minigene / variant (summary statement) [1]: consistently failed to exert any significant effects
- changes in the splicing (correctly spliced product) [2]: did not produce significant changes in the splicing
- luciferase activity [4]: failed to do so

SMILES: c1coc(CNc2ncnc3[nH]cnc23)c1 [kinetin]
- luciferase activity ([1]; kinetin, lower concentrations (from 10 µM, below 100 µM), 24 h): only minor effects
- splicing of the AGA minigene / variant (summary statement) [1]: no systematic positive effect
- endogenous AGA mRNA with exon 2 ([3]; kinetin 50 µM): no significant increase

SMILES: O=c1cc(-c2ccc(O)c(O)c2)oc2cc(O)cc(O)c12 [luteolin, 3',4',5,7-tetrahydroxyflavone]
- increase in luciferase activity ([1]; 25 µM luteolin, 24 h, most efficient concentration): 5-6 fold
- luciferase activity ([1]; all luteolin concentrations, 10 µM - 50 µM, 24 h): significant increase in luciferase activity
- luciferase expression in Western blot ([1]; lysates of the luteolin/kinetin luciferase assay): strong luciferase expression
- fold induction at 25 µM ([3]; Homo sapiens, Fibroblast, luteolin 25 µM, read-out: increase of endogenous AGA mRNA with exon 2): ~2.5
- AGA activity (AGA activity): significant increase in the AGA activity

SMILES: CC(=O)CCCCn1c(=O)c2c(ncn2C)n(C)c1=O [pentoxifylline, 3,7-dimethyl-1-(5-oxohexyl) xanthine]
- luciferase activity [1, 5]: significantly increased luciferase activity
- fold induction at 7500 µM [2]: 5 to 10
- luciferase activity [4]: significantly increased the luciferase activity

SMILES: Cn1cnc2c1c(=O)[nH]c(=O)n2C [theobromine, 3,7-dimethylxanthine]
- luciferase activity ([1]; four concentrations 1 mM - 7.5 mM, 24 h, compared to untreated cells): non-significant changes
- changes in the splicing (correctly spliced product) [2]: did not produce significant changes in the splicing
- luciferase activity [4]: failed to do so

SMILES: Cn1c(=O)c2[nH]cnc2n(C)c1=O [theophylline, 1,3-dimethylxanthine]
- luciferase activity [1, 5]: significantly increased luciferase activity
- fold induction at 7500 µM [2]: 5 to 10
- luciferase readout [4]: significant, dose dependent increase in the luciferase readout
